Usually IC50 stands for the midpoint of a concentration-inhibition curve. Read a low IC50 as greater potency.

The assay concerns the target T1, Glycogen phosphorylase, liver form (Homo sapiens, UniProt P06737).
T1 sequence (P06737 whole entry): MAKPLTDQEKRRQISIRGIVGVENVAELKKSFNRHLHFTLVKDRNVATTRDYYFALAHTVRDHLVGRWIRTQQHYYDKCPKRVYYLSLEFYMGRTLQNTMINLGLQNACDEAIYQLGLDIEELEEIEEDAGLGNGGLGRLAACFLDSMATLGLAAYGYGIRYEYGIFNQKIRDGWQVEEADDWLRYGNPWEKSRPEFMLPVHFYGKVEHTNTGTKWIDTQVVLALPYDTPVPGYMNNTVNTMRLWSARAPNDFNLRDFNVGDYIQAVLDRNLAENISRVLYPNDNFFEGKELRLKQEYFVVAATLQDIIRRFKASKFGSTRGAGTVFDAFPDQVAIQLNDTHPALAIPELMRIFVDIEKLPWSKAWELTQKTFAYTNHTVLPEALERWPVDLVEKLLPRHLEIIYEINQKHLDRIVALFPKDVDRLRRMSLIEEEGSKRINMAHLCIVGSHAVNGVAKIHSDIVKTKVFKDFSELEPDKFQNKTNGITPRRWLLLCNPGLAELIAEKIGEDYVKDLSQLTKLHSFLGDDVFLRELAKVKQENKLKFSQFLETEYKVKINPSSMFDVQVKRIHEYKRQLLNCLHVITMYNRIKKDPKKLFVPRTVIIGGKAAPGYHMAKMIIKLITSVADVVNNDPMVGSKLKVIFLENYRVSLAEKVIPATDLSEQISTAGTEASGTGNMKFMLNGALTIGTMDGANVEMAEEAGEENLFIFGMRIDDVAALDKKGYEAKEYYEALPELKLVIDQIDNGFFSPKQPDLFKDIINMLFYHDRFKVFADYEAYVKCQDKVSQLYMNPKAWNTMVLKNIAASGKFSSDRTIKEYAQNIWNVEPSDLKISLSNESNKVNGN
As to the kind of experiment: Glycogen Phosphorylase Activity Assay. Conditions: pH 6.8; 22 °C. The procedure: The activity of recombinant human liver GPa in the forward direction was measured by monitoring the production of NADPH. Enzyme activity was assayed at pH 6.8 in phosphate buffer containing beta-NADP, alpha -glucose 1,6-bisphosphate, glucose-6-phophate dehydrogenase, phosphoglucomutase, glycogen, and glucose. […] The reaction was started by adding hLGPa solution (beta-glycerophosphate and cystein, pH 6.8). The reaction took place at room temperature, and the conversion of oxidized beta-NADP to reduced beta-NADPH was measured at 340 nm for 2 h. The hLGPa inhibition IC50 values were calculated using the logistic regression method and SAS software.
With `O=C(Nc1ccc(C(O)CO)cc1F)c1cc2cc(Cl)ccc2[nH]1` (stereo not drawn) [5-chloroindolecarboxamide, 9b], the IC50 worked out at 420 nM.

For the compound `O=C(Nc1ccc(C(O)CO)cc1Cl)c1cc2cc(Cl)ccc2[nH]1` (stereo not drawn) [5-chloroindolecarboxamide, 9c], the IC50 was found to be 1100 nM.

Compound `O=C(Nc1ccc(C(O)CO)c(F)c1)c1cc2cc(Cl)ccc2[nH]1` (stereo not drawn) [5-chloroindolecarboxamide, 9g] returned an IC50 of 340 nM.
